Our source for the IC50 values is patent US20230022157A1 (Achillion Pharmaceuticals, Inc., priority 2018, published 2023).

A value given as a limit tells only on which side of the number the result lay.

In one assay the target is T1, Human Factor D (Homo sapiens, UniProt P00746).
T1 construct: purified from human serum; purchased Complement Technology, Inc; host or cells: human serum (natural protein, not recombinant)
T1 sequence (P00746 26-253): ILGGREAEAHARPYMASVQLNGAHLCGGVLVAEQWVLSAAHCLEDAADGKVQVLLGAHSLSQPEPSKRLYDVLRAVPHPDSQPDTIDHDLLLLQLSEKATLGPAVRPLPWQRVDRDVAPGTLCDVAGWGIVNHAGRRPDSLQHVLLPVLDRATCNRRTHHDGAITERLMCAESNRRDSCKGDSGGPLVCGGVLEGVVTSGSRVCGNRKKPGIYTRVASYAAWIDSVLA
Nature of the assay: Human Factor D Assay. It counts as biochemical. The settings on record: Human Factor D 80 nM, substrate Z-L-Lys-SBzl, assay of Example 3; read-out: IC50 (Stars). The gist of the method:
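Serum-purified human factor D (80 nM final) preincubated 5 min at room temperature with test compound in 50 mM Tris, 1M NaCl, pH 7.5. Z-L-Lys-SBzl substrate and DTNB then added, each at 100 μM final. IC50 from nonlinear regression of reaction rate against compound concentration.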
Broadly, the IC50 is the concentration that gives 50% inhibition. For `CC(=O)c1nn(CC(=O)N2[C@H](C(=O)Nc3nc(Br)ccc3C)C[C@@]3(CO)C[C@@H]23)c2c(C)cc(-c3cnc(CO)nc3)cc12` [Compound 31], the concentration for half-maximal inhibition (IC50) was less than 1000 nM. On the same count and under the same terms, the value for `CC(=O)c1nn(CC(=O)N2[C@H](C(=O)Nc3nc(Br)ccc3C)C[C@@]3(C)C[C@@H]23)c2c(C)cc(-c3cnc(C(=O)O)nc3)cc12` [Compound 39, 5-(3-acetyl-1-(2-((1R,3S,5R)-3-((6-bromo-3-methylpyridin-2-yl)carbamoyl)-5-methyl-2-azabicyclo[3.1.0]hexan-2-yl)-2-oxoethyl)-7-methyl-1H-indazol-5-yl)pyrimidine-2-carboxylic acid] was less than 1000 nM.

Still in this assay, the particulars now being: Human Factor D 80 nM, substrate Z-L-Lys-SBzl; Table 2; read-out: IC50 (Stars).
Turning to `CC(=O)c1nn(CC(=O)N2[C@H](C(=O)Nc3nc(C(F)(F)F)ccc3C)C[C@@]3(C)C[C@@H]23)c2ccc(-c3cnc4cc(C)nn4c3)cc12` [Compound 212, (1R,3S,5R)-2-(2-(3-acetyl-5-(2-methylpyrazolo[1,5-a]pyrimidin-6-yl)-1H-indazol-1-yl)acetyl)-5-methyl-N-(3-methyl-6-(trifluoromethyl)pyridin-2-yl)-2-azabicyclo[3.1.0]hexane-3-carboxamide], the IC50 was less than 1000 nM. For `COCc1ccc(Br)nc1NC(=O)[C@@H]1C[C@@]2(C)C[C@H]2N1C(=O)Cn1cc(C(C)=O)c2cc(-c3cnc(C)nc3)cc(C)c21` [Compound 214, (1R,3S,5R)-2-(2-(3-acetyl-7-methyl-5-(2-methyl-pyrimidin-5-yl)-1H-indol-1-yl)acetyl)-N-(6-bromo-3-(methoxymethyl)pyridin-2-yl)-5-methyl-2-azabicyclo[3.1.0]hexane-3-carboxamide], the IC50 is less than 1000 nM. Still for that read-out and setting: the value for `CC(=O)c1nn(CC(=O)N2C[C@H]3C[C@H]3[C@H]2C(=O)Nc2nc(Br)ccc2C)c2ccc(-c3cncc(S(N)(=O)=O)c3)cc12` [Compound 69, (1R,2S,5S)-3-(2-(3-Acetyl-5-(5-sulfamoylpyridin-3-yl)-1H-indazol-1-yl)acetyl)-N-(6-bromo-3-methylpyridin-2-yl)-3-azabicyclo[3.1.0]hexane-2-carboxamide] was less than 1000 nM. The same measure, in the same setting: the value for `CC(=O)c1nn(CC(=O)N2[C@H](C(=O)N[C@H](C)CC3CC3)C[C@@]3(C)C[C@@H]23)c2c(C)cc(-c3cnc(C)nc3)cc12` [Compound 133, (1R,3S,5R)-2-{2-[3-acetyl-7-methyl-5-(2-methylpyrimidin-5-yl)indazol-1-yl]acetyl}-N-[(2R)-1-cyclopropylpropan-2-yl]-5-methyl-2-azabicyclo[3.1.0]hexane-3-carboxamide] was less than 1000 nM; that for `CC(=O)c1nn(CC(=O)N2[C@H](C(=O)Nc3nc(Br)ccc3C)C[C@@]3(C)C[C@@H]23)c2c(C)cc(-c3cnc(F)nc3)cc12` [Compound 59, (1R,3S,5R)-2-(2-(3-acetyl-5-(2-fluoropyrimidin-5-yl)-7-methyl-1H-indazol-1-yl)acetyl)-N-(6-bromo-3-methylpyridin-2-yl)-5-methyl-2-azabicyclo[3.1.0]hexane-3-carboxamide] was less than 1000 nM; that for `CC(=O)c1cn(CC(=O)N2[C@H](C(=O)Nc3nc(Br)c(F)cc3C)C[C@@]3(C)C[C@@H]23)c2c(C)cc(-c3cnc4cc(C)nn4c3)cc12` [Compound 209, (1R,3S,5R)-2-(2-(3-acetyl-7-methyl-5-(2-methylpyrazolo[1,5-a]pyrimidin-6-yl)-1H-indol-1-yl)acetyl)-N-(6-bromo-5-fluoro-3-methylpyridin-2-yl)-5-methyl-2-azabicyclo[3.1.0]hexane-3-carboxamide] was less than 1000 nM.

Consider `CC(=O)c1nn(CC(=O)N2[C@H](C(=O)Nc3nc(Br)ccc3C)C[C@@]3(C)C[C@@H]23)c2c(C)cc(-c3cnc(CF)nc3)cc12` [Compound 208, (1R,3S,5R)-2-(2-(3-acetyl-5-(2-(fluoromethyl)pyrimidin-5-yl)-7-methyl-1H-indazol-1-yl)acetyl)-N-(6-bromo-3-methylpyridin-2-yl)-5-methyl-2-azabicyclo[3.1.0]hexane-3-carboxamide], for which the IC50 was less than 1000 nM. Same read-out and setting: the value for `CC(=O)c1cn(CC(=O)N2[C@H](C(=O)Nc3nc(C(F)(F)F)ccc3C)C[C@@]3(C)C[C@@H]23)c2c(CF)cc(-c3cnc(C)nc3)cc12` [Compound 239, (1R,3S,5R)-2-(2-(3-acetyl-7-(fluoromethyl)-5-(2-methylpyrimidin-5-yl)-1H-indol-1-yl)acetyl)-5-methyl-N-(3-methyl-6-(trifluoromethyl)pyridin-2-yl)-2-azabicyclo[3.1.0]hexane-3-carboxamide] was less than 1000 nM. For the compound `CC(=O)c1nn(CC(=O)N2[C@H](C(=O)Nc3nc(Br)ccc3C)C[C@@]3(C)C[C@@H]23)c2c(C)cc(-c3cnc(C#N)nc3)cc12` [Compound 57, (1R,3S,5R)-2-(2-(3-acetyl-5-(2-cyanopyrimidin-5-yl)-7-methyl-1H-indazol-1-yl)acetyl)-N-(6-bromo-3-methylpyridin-2-yl)-5-methyl-2-azabicyclo[3.1.0]hexane-3-carboxamide], the IC50 is less than 1000 nM. Still for that read-out and setting: the value for `CC(=O)c1nn(CC(=O)N2[C@H](C(=O)Nc3nc(Br)ccc3C)C[C@@]3(C)C[C@@H]23)c2ccc(-c3cncc(S(C)(=O)=O)c3)cc12` [Compound 121, (1R,3S,5R)-2-(2-(3-Acetyl-5-(5-(methylsulfonyl)pyridin-3-yl)-1H-indazol-1-yl)acetyl)-N-(6-bromo-3-methylpyridin-2-yl)-5-methyl-2-azabicyclo[3.1.0]hexane-3-carboxamide] was less than 1000 nM. Same read-out and setting: the value for `CC(=O)c1cn(CC(=O)N2[C@H](C(=O)Nc3nc(Br)c(F)cc3C)C[C@@]3(C)C[C@@H]23)c2ccc(-c3cnc4cc(C)nn4c3)cc12` [Compound 211, (1R,3S,5R)-2-(2-(3-acetyl-5-(2-methylpyrazolo[1,5-a]pyrimidin-6-yl)-1H-indol-1-yl)acetyl)-N-(6-bromo-5-fluoro-3-methylpyridin-2-yl)-5-methyl-2-azabicyclo[3.1.0]hexane-3-carboxamide] was less than 1000 nM. Same read-out and setting: the value for `CC(=O)c1nn(CC(=O)N2[C@H](C(=O)Nc3nc(Br)ccc3C)C[C@@]3(C)C[C@@H]23)c2c(C)cc(-c3ccnc(CO)c3)cc12` [Compound 132, (1R,3S,5R)-2-(2-(3-acetyl-5-(2-(hydroxymethyl)pyridin-4-yl)-7-methyl-1H-indazol-1-yl)acetyl)-N-(6-bromo-3-methylpyridin-2-yl)-5-methyl-2-azabicyclo[3.1.0]hexane-3-carboxamide] was less than 1000 nM; that for `CC(=O)c1cn(CC(=O)N2[C@H](C(=O)Nc3nc(Br)ccc3C)C[C@@]3(C)C[C@@H]23)c2c(C)cc(-c3cnc4cc(C5CC5)nn4c3)cc12` [Compound 195, (1R,3S,5R)-2-(2-(3-acetyl-5-(2-cyclopropylpyrazolo[1,5-a]pyrimidin-6-yl)-7-methyl-1H-indol-1-yl)acetyl)-N-(6-bromo-3-methylpyridin-2-yl)-5-methyl-2-azabicyclo[3.1.0]hexane-3-carboxamide] was less than 1000 nM; that for `CC(=O)c1nn(CC(=O)N2[C@H]3CC[C@H](C3)[C@H]2C(=O)Nc2nc(Br)c(F)cc2C)c2c(C3CC3)cc(-c3cnc(C)nc3)cc12` [Compound 122, (1S,3S,4R)-2-(2-(3-Acetyl-7-cyclopropyl-5-(2-methylpyrimidin-5-yl)-1H-indazol-1-yl)acetyl)-N-(6-bromo-5-fluoro-3-methylpyridin-2-yl)-2-azabicyclo[2.2.1]heptane-3-carboxamide] was less than 1000 nM.

Consider `CC(=O)c1cn(CC(=O)N2[C@H](C(=O)Nc3nc(C(F)(F)F)ccc3C)C[C@@]3(C)C[C@@H]23)c2c(C)cc(-c3cnc4cc(CF)nn4c3)cc12` [Compound 228, (1R,3S,5R)-2-(2-(3-acetyl-5-(2-(fluoromethyl)pyrazolo[1,5-a]pyrimidin-6-yl)-7-methyl-1H-indol-1-yl)acetyl)-5-methyl-N-(3-methyl-6-(trifluoromethyl)pyridin-2-yl)-2-azabicyclo[3.1.0]hexane-3-carboxamide], for which the IC50 was less than 1000 nM. Still for that read-out and setting: the value for `CC(=O)c1nn(CC(=O)N2[C@H](C(=O)Nc3nc(Br)ccc3C)C[C@@]3(C)C[C@@H]23)c2cc(CF)c(Nc3cnc(C)nc3)cc12` [Compound 185, (1R,3S,5R)-2-(2-(3-acetyl-6-(fluoromethyl)-5-((2-methylpyrimidin-5-yl)amino)-1H-indazol-1-yl)acetyl)-N-(6-bromo-3-methylpyridin-2-yl)-5-methyl-2-azabicyclo[3.1.0]hexane-3-carboxamide] was less than 1000 nM; that for `CC(=O)c1nn(CC(=O)N2[C@H](C(=O)NCC3(C)CC3)C[C@@]3(C)C[C@@H]23)c2c(C)cc(-c3cnc(C)nc3)cc12` [Compound 89, (1R,3S,5R)-2-{2-[3-acetyl-7-methyl-5-(2-methylpyrimidin-5-yl)indazol-1-yl]acetyl}-5-methyl-N-[(1-methylcyclopropyl)methyl]-2-azabicyclo[3.1.0]hexane-3-carboxamide] was less than 1000 nM; that for `Cc1ncc(-c2ccc3c(c2)c(C2OCCO2)nn3CC(=O)N2[C@H](C(=O)Nc3nc(Br)ccc3C)C[C@@]3(C)C[C@@H]23)cn1` [Compound 143, (1R,3S,5R)-2-(2-(3-(1,3-dioxolan-2-yl)-5-(2-methylpyrimidin-5-yl)-1H-indazol-1-yl)acetyl)-N-(6-bromo-3-methylpyridin-2-yl)-5-methyl-2-azabicyclo[3.1.0]hexane-3-carboxamide] was less than 1000 nM. On to `CC(=O)c1nn(CC(=O)N2[C@H](C(=O)Nc3nc(Br)ccc3C3CC3)C[C@@]3(C)C[C@@H]23)c2ccc(-c3cnc(CO)nc3)cc12` [Compound 81, (1R,3S,5R)-2-(2-(3-acetyl-5-(2-(hydroxymethyl)pyrimidin-5-yl)-1H-indazol-1-yl)acetyl)-N-(6-bromo-3-cyclopropylpyridin-2-yl)-5-methyl-2-azabicyclo[3.1.0]hexane-3-carboxamide], for which the IC50 is less than 1000 nM.
